Test [1] has as its system 5-HTT. Kind of test: 5-HTT expression in pulmonary artery and lung of MCT-treated rats. Type of test: in vivo. The conditions noted are these: 21 days after MCT. On the procedure: The experiments were performed in adult male Wistar rats (300 to 350 g) in accordance with institutional guidelines after approval by the ethical review committee. PAH development and pulmonary expression of 5-HTT were examined in rats after 60 mg/kg single injection (i.p.) of monocrotaline (MCT). To assess the potential preventive effect of KMUP-1 on MCT-induced PAH and associated proliferation, we assigned rats at random to 2 groups of 8 animals which received KMUP-1 at 5 mg/kg/day p.o or 1 mg/kg/day i.p. All treatments were given once a day for 3 weeks after a single MCT injection (60 mg/kg i.p.) (Abe et al., 2004). On day 21, rats were anesthetized and pulmonary artery blood pressure (MPAP) was recorded as previously described. Lung tissues were dissected for Western blotting and immunohistochemistry.
For 5-HTT immunostaining, the lung slides were dewaxed in 100% xylene, and the sections were then rehydrated by successive immersion first in decreasing ethanol concentrations (100%, 90%, 80%, 50% and 30%) and then in water. Endogenous peroxidase activity was blocked using H2O2 in methanol (0.3% vol/vol) for 10 min. After three PBS washes, sections were pre-incubated in PBS supplemented with 3% (wt/vol) BSA for 30 min, then incubated overnight at 4° C. with goat polyclonal anti-5-HTT antibody (Abcam Biotechnology, Cambridge, UK) diluted to 1:1000 in 1×PBS, 0.02% BSA. […]

For test [2], the system named is eNOS. Kind of test: Expression of eNOS in HPAEC. The class given is cell-based, human. On the procedure:
HPAEC purchased from ATCC were maintained in humidified incubator containing 5% CO2 at 37° C. HPAEC were cultured in F-12 supplemented with 10% fetal bovine serum. The culture medium was changed every 3 days and cells were subcultured until confluence. HPAEC were harvested with a solution of trypsin-EDTA (GIBCO BRL, NY, USA) while in a logarithmic phase of growth. HPAEC were used between passages 4-8.
To measure the expression of eNOS and 5-HT2B receptor in HPAEC after incubation with KMUP-1 (1-100 μM) for 24 h, whole lysates were collected for Western blotting assay. The relative density was determined using NIH imaging software.

The subject of test [3] is eNOS. Kind of test: Short term nebulization, eNOS expression in lung tissues. The conditions noted are these: nebulization 1.0˜2.5 mM, 30 mins, without ovalbumine sensitization. Type of test: in vivo, BALB/c mice. On the procedure: […] Aerosols were generated by ultrasonic nebulizer from day 21 to 27. Mice were sacrificed on day 28, (Cataldo D D, et al., 2002). Three different experiments were performed on cohorts of 7˜14 mice per experimental condition.
The lung tissues were homogenized, washed with PBS and incubated in lysis buffer in addition to a protease inhibitor cocktail (Sigma, St. Louis, Mo.) to obtain extracts of lung proteins. A Western blot analysis was performed as described previously (Wu B N, et al., 2006). The samples were loaded to 10% SDS-PAGE gels and were separated at 120 V for 90 min. The blots were incubated with anti-eNOS antibody diluted at a ratio of 1:500, anti-sGCα1 antibody diluted at a ratio of 1:2000, anti-PKG antibody diluted at a ratio of 1:500, anti-VCAM-1 antibody diluted at a ratio of 1:500, anti-ICAM-1 antibody diluted at a ratio of 1:500, and anti-MMP-9 antibody diluted at a ratio of 1:600 overnight at 4° C. The membranes were stripped and re-blotted with anti-actin antibody (Sigma, St. Louis, Mo.) to verify the equal loading of protein in each lane.

Test [4] has as its system 5-HTT. Kind of test: 5-HT-induced 5-HTT expression in PASMCs (Western blotting). The class given is cell-based, Wistar rats. On the procedure: PASMCs were stimulated with 5-HT or not, as indicated. Cells were treated with KMUP-1 for 24 h before 5-HT stimulation. Whole lysates were collected and resolved by SDS-PAGE as previously described. Primary antibodies were anti-β-actin at: 1:10,000 dilution and anti-RhoA, anti-ROCK, antiphospho-ERK1/2, anti-phospho-AKT, anti-ERK1/2, anti-AKT, anti-5HTT, anti-5-HT2B and anti-eNOS at 1:1000. All blots were incubated with antibodies at 4° C. overnight. After being washed, the appropriate secondary antibodies were added at a dilution of 1:1000 for 1 h at room temperature. After extensive washing, blots were developed with a Super Signal enhanced chemiluminescence kit (Biorad, CA, USA) and visualized on Kodak AR film.
The expression of RhoA/ROCK and phosphorylation of ERK1/2 and AKT kinase in PASMCs were assessed by incubating the PASMCs with 5-HT (10 μM) for 15 min (peak time for RhoA/ROCK, ERK1/2 and AKT phosphorylation) and 5-HTT for 10 min (peak time for 5-HTT) after KMUP-1 (1-100 μM) was added to the culture of PASMCs for 24 h.
On the technique in general: In western blotting, separated proteins are transferred to a membrane and probed.

The next test concerns PASMCs. Kind of test: Microculture tetrazolium test (MTT), PASMCs proliferation. The conditions noted are these: 1-100 μM; 5-HT 10 μM 24 h. Type of test: cell-based, Wistar rats. On the procedure: At the end of this period, MTT (2 g/L) was added to each well, and incubation proceeded at 37° C. for 4 h. Thereafter, the medium was removed and the cells were solubilized in 150 μL DMSO.

On to `Cn1c(=O)c2c(ncn2CCN2CCN(c3ccccc3Cl)CC2)n(C)c1=O` [KMUP-1, 7-[2-[4-(2-chlorophenyl)piperazinyl]ethyl]-1,3-dimethylxanthine], for which, in the test on 5-HTT [1], the “5-HTT protein expression in lung tissue (Western blotting)” value is “significantly reduced”. In the test on 5-HTT [1] (5 mg/kg p.o. and 1 mg/kg i.p.), the “5-HTT expression in pulmonary artery (immunochemistry)” value is “significantly decreased”. Moreover, the “expression of eNOS compared to 5-HT treatment alone” value in the test on eNOS [2] (10 μM, 24 h before adding 5-HT) was “raised”. The “eNOS expression in cultured HPAEC” value with eNOS [2] (1-100 μM, 24 h) is given as “dose-dependently increased”. In the test on eNOS [3], the “eNOS expression in mice lung tissues” value is listed as “dose-dependently increased”. Further, the “5-HT-induced expression of 5-HTT” value in the test on 5-HTT [4] (10 μM) is reported as “inhibited”; with 5-HTT [4] (1-100 μM, 24 h, then 5-HT 10 min) it was “dose-dependently inhibited”. For the same compound, the “PASMCs proliferation (MTT assay)” value in the test on PASMCs is “dose-dependently inhibited”.
